Measured values from the NIST ThermoML archive (doi:10.1016/j.tca.2013.02.010).

Columns and labels:
[1] = refractive index (Na D-line) (dimensionless); conditions: 298.15 K; 101.33 kPa; Liquid; Standard Abbe refractometry
[2] = 101.33 kPa, Liquid, Pycnometric method
[3] = excess molar enthalpy (molar enthalpy of mixing); xn = mol fraction of the nth substance listed; conditions: 101 kPa, Liquid, Flow calorimetry
[4] = xn = mol fraction of the nth substance listed; conditions: 308.15 K, 101 kPa, Liquid, Direct dilatometry

CC(C)O [propan-2-ol]
Conditions | refractive index
[1] | 1.3753

[2]
Conditions | mass density [kg/m3]
298.15 K | 781.25
308.15 K | 772.3

NC=O [formamide]
Conditions | refractive index
[1] | 1.4461

[2]
Conditions | mass density [kg/m3]
298.15 K | 1129.04
308.15 K | 1120.45

NC=O [formamide] + CCCO
[3]
Conditions | excess molar enthalpy [kcal/mol]
298.15 K, x1 = 0.0624 | 0.0614
298.15 K, x1 = 0.0881 | 0.082
298.15 K, x1 = 0.1208 | 0.105
298.15 K, x1 = 0.1479 | 0.123
298.15 K, x1 = 0.1832 | 0.141
298.15 K, x1 = 0.2231 | 0.156
298.15 K, x1 = 0.254 | 0.166
298.15 K, x1 = 0.3018 | 0.1757
298.15 K, x1 = 0.3775 | 0.1809
298.15 K, x1 = 0.452 | 0.1788
298.15 K, x1 = 0.4832 | 0.1771
298.15 K, x1 = 0.5364 | 0.1678
298.15 K, x1 = 0.5953 | 0.158
298.15 K, x1 = 0.6672 | 0.1441
298.15 K, x1 = 0.6958 | 0.137
298.15 K, x1 = 0.7521 | 0.122
298.15 K, x1 = 0.7958 | 0.109
298.15 K, x1 = 0.8443 | 0.0913
298.15 K, x1 = 0.8956 | 0.0686
298.15 K, x1 = 0.9208 | 0.0559
298.15 K, x1 = 0.9526 | 0.0361
298.15 K, x1 = 0.9666 | 0.028
308.15 K, x1 = 0.0582 | 0.0631
308.15 K, x1 = 0.079 | 0.0825
308.15 K, x1 = 0.104 | 0.103
308.15 K, x1 = 0.1374 | 0.125
308.15 K, x1 = 0.1624 | 0.141
308.15 K, x1 = 0.2082 | 0.164
308.15 K, x1 = 0.2416 | 0.1769
308.15 K, x1 = 0.275 | 0.1869
308.15 K, x1 = 0.3332 | 0.1979
308.15 K, x1 = 0.4124 | 0.202
308.15 K, x1 = 0.4666 | 0.2036
308.15 K, x1 = 0.5082 | 0.1986
308.15 K, x1 = 0.5666 | 0.1919
308.15 K, x1 = 0.625 | 0.1769
308.15 K, x1 = 0.679 | 0.164
308.15 K, x1 = 0.725 | 0.15
308.15 K, x1 = 0.775 | 0.131
308.15 K, x1 = 0.8166 | 0.113
308.15 K, x1 = 0.8666 | 0.0877
308.15 K, x1 = 0.9124 | 0.0621
308.15 K, x1 = 0.9416 | 0.0425
308.15 K, x1 = 0.9582 | 0.0306

[4]
Conditions | excess molar volume [m3/mol]
x1 = 0.0615 | -3e-08
x1 = 0.1052 | -4.3e-08
x1 = 0.165 | -6e-08
x1 = 0.1937 | -6.9e-08
x1 = 0.2453 | -7.8e-08
x1 = 0.2856 | -9.1e-08
x1 = 0.3317 | -1.05e-07
x1 = 0.372 | -1.12e-07
x1 = 0.3949 | -1.25e-07
x1 = 0.4236 | -1.35e-07
x1 = 0.4639 | -1.48e-07
x1 = 0.5213 | -1.61e-07
x1 = 0.5903 | -1.71e-07
x1 = 0.6394 | -1.71e-07
x1 = 0.6765 | -1.68e-07
x1 = 0.7225 | -1.59e-07
x1 = 0.7686 | -1.42e-07
x1 = 0.8031 | -1.23e-07
x1 = 0.8492 | -1e-07
x1 = 0.8837 | -7.8e-08
x1 = 0.9124 | -5.5e-08
x1 = 0.9411 | -3.3e-08

CCCO [propan-1-ol]
Conditions | refractive index
[1] | 1.3835

[2]
Conditions | mass density [kg/m3]
298.15 K | 799.76
308.15 K | 791.48

NC=O [formamide] + CC(C)O
[3]
Conditions | excess molar enthalpy [kcal/mol]
298.15 K, x1 = 0.056 | 0.0588
298.15 K, x1 = 0.073 | 0.0736
298.15 K, x1 = 0.099 | 0.0963
298.15 K, x1 = 0.125 | 0.111
298.15 K, x1 = 0.162 | 0.134
298.15 K, x1 = 0.2 | 0.149
298.15 K, x1 = 0.253 | 0.167
298.15 K, x1 = 0.291 | 0.1747
298.15 K, x1 = 0.329 | 0.1809
298.15 K, x1 = 0.4 | 0.1855
298.15 K, x1 = 0.468 | 0.1845
298.15 K, x1 = 0.537 | 0.179
298.15 K, x1 = 0.597 | 0.1699
298.15 K, x1 = 0.662 | 0.157
298.15 K, x1 = 0.702 | 0.1477
298.15 K, x1 = 0.728 | 0.139
298.15 K, x1 = 0.766 | 0.126
298.15 K, x1 = 0.812 | 0.108
298.15 K, x1 = 0.849 | 0.0913
298.15 K, x1 = 0.878 | 0.077
298.15 K, x1 = 0.901 | 0.0636
298.15 K, x1 = 0.941 | 0.0406
308.15 K, x1 = 0.0666 | 0.0798
308.15 K, x1 = 0.0916 | 0.103
308.15 K, x1 = 0.1166 | 0.124
308.15 K, x1 = 0.1501 | 0.1475
308.15 K, x1 = 0.1812 | 0.165
308.15 K, x1 = 0.229 | 0.1886
308.15 K, x1 = 0.2702 | 0.2022
308.15 K, x1 = 0.3082 | 0.2141
308.15 K, x1 = 0.3666 | 0.2239
308.15 K, x1 = 0.425 | 0.2297
308.15 K, x1 = 0.4958 | 0.2297
308.15 K, x1 = 0.5624 | 0.2239
308.15 K, x1 = 0.629 | 0.2094
308.15 K, x1 = 0.6832 | 0.1919
308.15 K, x1 = 0.7124 | 0.1809
308.15 K, x1 = 0.7503 | 0.164
308.15 K, x1 = 0.7958 | 0.14
308.15 K, x1 = 0.8374 | 0.115
308.15 K, x1 = 0.8708 | 0.0932
308.15 K, x1 = 0.8874 | 0.0805
308.15 K, x1 = 0.9082 | 0.0674
308.15 K, x1 = 0.954 | 0.0337

[4]
Conditions | excess molar volume [m3/mol]
x1 = 0.0455 | -3.2e-08
x1 = 0.1021 | -6.4e-08
x1 = 0.1327 | -7.9e-08
x1 = 0.1725 | -1.05e-07
x1 = 0.2155 | -1.34e-07
x1 = 0.2692 | -1.69e-07
x1 = 0.3269 | -2.06e-07
x1 = 0.3535 | -2.27e-07
x1 = 0.3867 | -2.48e-07
x1 = 0.4245 | -2.71e-07
x1 = 0.485 | -3e-07
x1 = 0.5191 | -3.13e-07
x1 = 0.5729 | -3.28e-07
x1 = 0.6237 | -3.32e-07
x1 = 0.6951 | -3.31e-07
x1 = 0.7543 | -3.11e-07
x1 = 0.7907 | -2.9e-07
x1 = 0.825 | -2.61e-07
x1 = 0.8735 | -2e-07
x1 = 0.8999 | -1.71e-07
x1 = 0.9331 | -1.18e-07
x1 = 0.9745 | -5.1e-08
